Experimental data published in patent US20140094413A1, “HEPATOCYTE GROWTH FACTOR (HGF) MIMICS AS THERAPEUTIC AGENTS” (WASHINGTON STATE UNIVERSITY, priority 2012, published 2014).
Entries after “also recorded” stand apart in the source; their conditions may differ. Structures can show the parent of a compound that is named as a salt. Where a SMILES comes first, the peptide text is derived from it. [ ]: non-standard residue; d: D form. dNle = CCCC[C@@H](N)C(=O)O; Ahx = NCCCCCC(=O)O

Tests used:
Met = assay: Inhibition of HGF-dependent Met phosphorylation in HEK293 cells; type: cell-based, human; conditions: 10 min with HGF+/− analog
Method: HEK293 cells were seeded in 6 well tissue culture plates and grown to 95% confluency in DMEM containing 10% FBS. The cells were serum deprived for 24 h prior to the treatment to reduce the basal levels of phospho-Met. Following serum starvation, cocktails comprised of vehicle and HGF with/without 6-AH analogs were prepared and pre-incubated for 30 min at room temperature. The cocktail was then added to the cells for 10 min to stimulate the Met receptor and downstream proteins. Cells were harvested using RIPA lysis buffer (Millipore; Billerica, Mass.) fortified with phosphatase inhibitor cocktails 1 and 2 (Sigma-Aldrich; St. Louis, Mo.). The lysate was clarified by centrifugation at 15,000 nx g for 15 min, protein concentrations were determined using the BCA total protein assay (Pierce), and then appropriate volumes of the lysates were diluted with 2× reducing Laemmli buffer and heated for ten min at 95° C. Samples containing identical amounts of protein were resolved using SDS-PAGE (Criterion, BioRad Laboratories), transferred to nitrocellulose, and blocked in Tris-buffered saline (TBS) containing 5% milk for 1 h at room temperature. The phospho-Met antibody were added to the blocking buffer at a final concentration of 1:1000 and incubated at 4° C. overnight with gentle agitation. The membranes were then washed several times with water and TBS ([…], 0.05% Tween-20), a 1:5000 dilution of horseradish-peroxidase conjugated goat anti-rabbit antiserum was added, and the membranes further incubated for 1 h at room temperature. Proteins were visualized using the Supersignal West Pico Chemiluminescent Substrate system (Pierce, Fenton, Mo.) and molecular weights determined by comparison to protein ladders (BenchMark, Invitrogen, and Kaleidoscope, BioRad). Film images were digitized and analyzed using a UVP phosphoimager.

MDCK cells [1] = assay: Inhibition of HGF-dependent scattering in MDCK cells; type: cell-based, canine; conditions: HGF 20 ng/ml, 48 h
Method: MDCK cells were grown to 100% confluency on the coverslips in six-well plates and washed twice with PBS. The confluent coverslips were then aseptically transferred to new six well plates containing 900 μl serum free DMEM. Norleual, Hinge peptide, and/or HGF (20 ng/ml) were added to appropriate wells. Control wells received PBS vehicle. Plates were incubated at 37° C. with 5% CO2 for 48 h. Media was removed and cells were fixed with methanol. Cells were stained with Diff-Quik Wright-Giemsa (Dade-Behring, Newark, Del.) and digital images were taken. Coverslips were removed with forceps and more digital images were captured. Pixel quantification of images was achieved using Image J and statistics were performed using Prism 5 and InStat v.3.05 (GraphPad; San Diego, Calif.).

human HGF [2] = molecular target: T1, human HGF (Homo sapiens, UniProt P14210); assay: HGF binding, competition with 3H-Hinge; conditions: 1.25 ng HGF, 40 min at 37° C.; N=9
T1 construct: purchased R&D Systems (Minneapolis, Minn.)
Method: The binding of 6-AH analogs to HGF was assessed by competition using a soluble binding assay. 250 μl of PBS containing human HGF (1.25 ng) were incubated with ^3H-Hinge, the central dimerization domain of HGF, in the presence of varying concentrations of 6-AH analogs between 10^−13 M to 10^−7M (half-log dilutions) for 40 min at 37° C. The incubates were then spun through Bio-Gel P6 spin columns (400 μl packed volume) for 1 min to separate free and bound ^3H-Hinge and the eluent was collected. Five milliliters of scintillation fluid was added to the eluent, which contained the HGF bound ^3H-Hinge, and was then counted using scintillation counter. Total disintegrations per minute of bound ^3H-Hinge were calculated based on machine counting efficiency. The Ki values for the binding of the peptides were determined using the Prism 5. Competition binding curves were performed in triplicate.

human HGF [3] = molecular target: T1, human HGF; assay: HGF dimerization; type: biochemical; conditions: analogs at 10^−10 M, heparin, 30 minute incubation
Method: HGF dimerization was assessed using PAGE followed by silver staining (Kawas et al., 2011). Human HGF at a concentration of 0.08 ng/μl with or without 6-AH analogs was incubated with heparin at a final concentration of 5 μg/ml. Loading buffer was then added to each sample and the mixture separated by native PAGE using gradient Criterion XT precast gels (4-12% Bis-Tris; Biorad Laboratories, Hercules, Calif.). Next the gel was silver stained for the detection of the HGF monomers and dimers. Bands were quantitated from digital images using a UVP phosphoimager (Upland, Calif.).

MDCK cells [4] = assay: HGF-dependent MDCK cell proliferation (MTT); type: cell-based, canine; conditions: analogs at 10^−10M, HGF 10 ng/ml, 4 days
Method: 5000 MDCK cells were seeded into the wells of a 96 well plates in 10% FBS DMEM. To induce cellular quiescence, the cells were serum deprived for 24 h prior to initiating the treatments. Following serum starvation, 10 ng/ml HGF alone and with various concentrations of 6-AH analogs or PBS vehicle were added to the media. The cells were allowed to grow under these conditions for 4 days with a daily addition of 6-AH analogs. On the fourth day, 1 mg/ml of […] (MTT, Sigma-Aldrich) prepared in PBS was added to the cells and incubated for 4 h. Dimethyl sulfoxide diluted in a 0.01M glycine buffer was added to solubilize the cell membranes and the absorbance of reduced MTT in the buffer was quantitated at 590 nm using a plate reader (Biotek Synergy 2, Winooski, Vt.). HGF-dependent proliferation was determined by subtracting the basal proliferation (in the absence of HGF) from total proliferation rates in groups containing HGF.

rats = assay: Morris water maze with i.c.v. Dihexa and HGF antagonist Hinge; type: in vivo, rat
hippocampal neurons [5] = assay: Spinogenesis in mRFP-β-actin transfected dissociated hippocampal neurons; type: cell-based, rat
Method: (§1) Hippocampal neurons (2×10^5 cells per square cm) were cultured from P1 Sprague Dawley rats on plates coated with poly-L-lysine from Sigma (St. Louis, Mo.; molecular weight 300,000). Hippocampal neurons were maintained in Neurobasal A media from Invitrogen (Carlsbad, Calif.) supplemented with B27 from Invitrogen, 0.5 mM L-glutamine, and […] cytosine-D-arabinofuranoside from Sigma added at 2 days in vitro. Hippocampal neurons were then cultured a further 3-7 days, at which time they were either transfected or treated with various pharmacological reagents as described in (Wayman, Davare et al. 2008).
(§2) Neurons were transfected with mRFP-β-actin on day in vitro 6 (DIV6) using LipofectAMINE™ 2000 (Invitrogen) according to the manufacturer's protocol. This protocol yielded the desired 3-5% transfection efficiency thus enabling the visualization of individual neurons. Higher efficiencies obscured the dendritic arbor of individual neurons. Expression of fluorescently tagged actin allowed clear visualization of dendritic spines, as dendritic spines are enriched in actin. […] On DIV 12 the neurons were fixed (4% paraformaldehyde, 3% sucrose, 60 mM PIPES, 25 mM HEPES, 5 mM EGTA, 1 mM MgCl2, pH 7.4) for 20 min at room temperature and mounted. Slides were dried for at least 20 hours at 4° C. and fluorescent images were obtained with Slidebook 4.2 Digital Microscopy Software driving an Olympus IX81 inverted confocal microscope with a 60× oil immersion lens, NA 1.4 and resolution 0.280 μm Dendritic spine density was measured on primary and secondary dendrites at a distance of at least 150 μm from the soma. Five 50 μm long segments of dendrite from at least 10 neurons per data point were analyzed for each data point reported. Each experiment was repeated at least three times using independent culture preparations. Dendrite length was determined using the National Institutes of Health's Image J 1.41o program (NIH, Bethesda, Md.) and the neurite tracing program Neuron J (Meijering, Jacob et al. 2004) Spines were manually counted.
as §1, with “centimeter)” for “cm)”, “P1-2” for “P1”, “the text or figure legends.” for “(Wayman, Davare et al. 2008).”
as §2, with “DIV12” for “DIV 12”, “Dendrite length was determined using the National Institutes of Health's Image J 1.41o program (NIH, Bethesda, Md.) and the neurite tracing program Neuron J (Meijering, Jacob et al. 2004) Spines were manually counted.” left out

scopolamine treated rats = assay: Morris water maze, scopolamine amnesia model; conditions: Hinge 20 ng ICV; Dihexa 2 mg/kg orally; scopolamine 70 μg ICV
Method: Male Sprague-Dawley rats (Taconic derived) weighing 390-450 g were maintained with free access to water and food (Harland Tekland F6 rodent diet, Madison, Wis.) except the night prior to surgery when food was removed. Each animal was anesthetized with Ketamine hydrochloride plus Xylazine (100 and 2 mg/kg im. respectively; Phoenix Scientific; St. Joseph, Mo., and Moby; Shawnee, Kans.). […] The guide cannula measured 2.5 cm in overall length and was prepared with a heat bulge placed 2.5 mm from its beveled tip, thus acting as a stop to control the depth of penetration. Once in position, the cannula was secured to the skull with two stainless-steel screws and dental cement. Post-operatively the animals were housed individually in an American Accreditation for Laboratory Animal Care-approved vivarium maintained at 22±1° C. on a 12-h alternating light/dark cycle initiated at 06:00 h. All animals were hand gentled for 5 min per day during the 5-6 days of post-surgical recovery. Histological verification of cannula placement was accomplished by the injection of 5 μl fast-green dye via the guide cannula following the completion of behavioral testing.
A black circular platform (diameter: 12 cm; height: 24 cm) was placed 30 cm from the wall and submerged 2 cm below the water surface. The maze was operationally sectioned into four equal quadrants designated NW, NE, SW, and SE. For each rat the location of the platform was randomly assigned to one of the quadrants and remained fixed throughout the duration of training. Entry points were at the quadrant corners (i.e. N, S, E, and W) and were pseudo-randomly assigned such that each trial began at a different entry point than the preceding trial. Three of the four testing room walls were covered with extra-maze spatial cues consisting of different shapes (circles, squares, triangles) and colors. The swimming path of the animals was recorded using a computerized video tracking system (Chromotrack; San Diego Instruments, CA). […] Swim speed was determined from these values.
Each member of the treatment groups in the scopolamine studies received an icy injection of scopolamine hydrobromide (70 nmol in 2 μl aCSF over a duration of 20 s) 30 min prior to testing followed by Dihexa 10 min prior to testing. Control groups received scopolamine or aCSF 20 min prior to testing followed by aCSF 10 min prior testing. […] The rats in the aged rat study on received Dihexa of aCSF (control group). Briefly, acquisition trials were conducted on 8 consecutive days with 5 trials/day. On the first day of training the animal was placed on the platform for 30 s prior to the first trial. Trials commenced with the placement of the rat facing the wall of the maze at one of the assigned entry points. […] Once the animal located the platform it was permitted a 30 s rest period on the platform. […] The next trial commenced immediately following the rest period.
Following day 8 of acquisition training, one additional trial was conducted during which the platform was removed (probe trial). […] Total time spent within the target quadrant where the platform had been located during acquisition and the number of crossings of that quadrant was recorded.

hippocampal neurons [6] = assay: Whole-cell recordings of mEPSCs in dissociated hippocampal neurons; type: cell-based, rat; parameters: unit not given beside the values; conditions: 10^−12 M (each), 5 days
[7] = aCSF followed by Hinge, no scopolamine

T1 sequence (P14210 32-728): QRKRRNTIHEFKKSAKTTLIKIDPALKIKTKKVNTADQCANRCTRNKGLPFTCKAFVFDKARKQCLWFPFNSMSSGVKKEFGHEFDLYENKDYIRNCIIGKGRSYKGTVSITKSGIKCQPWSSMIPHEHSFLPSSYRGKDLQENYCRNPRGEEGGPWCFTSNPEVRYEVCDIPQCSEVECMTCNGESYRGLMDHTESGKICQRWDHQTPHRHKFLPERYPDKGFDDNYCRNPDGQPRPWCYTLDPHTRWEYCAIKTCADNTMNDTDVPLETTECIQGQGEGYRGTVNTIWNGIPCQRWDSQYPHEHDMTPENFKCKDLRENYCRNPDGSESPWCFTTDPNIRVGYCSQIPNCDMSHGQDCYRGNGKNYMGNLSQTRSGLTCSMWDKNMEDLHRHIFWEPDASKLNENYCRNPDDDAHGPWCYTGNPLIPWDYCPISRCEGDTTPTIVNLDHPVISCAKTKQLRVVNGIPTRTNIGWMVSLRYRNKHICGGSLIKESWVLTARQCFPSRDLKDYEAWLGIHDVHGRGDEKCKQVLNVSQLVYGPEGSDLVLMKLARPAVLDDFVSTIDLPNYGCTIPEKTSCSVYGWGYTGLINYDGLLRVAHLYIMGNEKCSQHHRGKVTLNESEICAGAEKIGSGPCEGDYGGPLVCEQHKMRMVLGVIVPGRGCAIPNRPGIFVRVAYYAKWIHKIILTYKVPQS

With `CCCC[C@@H](N)C(=O)N[C@@H](CCSC)C(=O)N[C@H](C(=O)NCCCCCC(N)=O)[C@@H](C)CC` [D-Nle-Met-Ile-NH—(CH2)5—CONH2] (H-[dNle]MI[Ahx]-NH2) the “Inhibition of HGF-dependent Met phosphorylation” value (Met) was “no ability to effect on Met activation”, the “Inhibition of HGF-dependent Met phosphorylation” value (Met; listed as Met) was “not different than the HGF group” and the “Inhibition of HGF-dependent MDCK cell scattering” value (MDCK cells [1]) was “not different”. The Ki (human HGF [2]) was 138 nM and the “Inhibition of HGF dimerization” value (human HGF [3]) was “unable to block dimerization at the concentration tested”.

`CCCC[C@@H](N)C(=O)N[C@@H](Cc1c[nH]c2ccccc12)C(=O)N[C@H](C(=O)NCCCCCC(N)=O)[C@@H](C)CC` [D-Nle-Trp-Ile-NH—(CH2)5—CONH2] (H-[dNle]WI[Ahx]-NH2) was tested, and the “Inhibition of HGF-dependent Met phosphorylation” value (Met) was “intermediate inhibitory activity”, the “Inhibition of HGF-dependent MDCK cell scattering” value (MDCK cells [1]) was “different from the HGF alone group but not different from the control group” and the Ki (human HGF [2]) was 3.37 nM. The “Inhibition of HGF dimerization” value (human HGF [3]) was “intermediate inhibition of dimerization”, the “Inhibition of HGF dimerization” value (human HGF [3]; listed as Trp) was “statistically different than the HGF treated group” and the “Inhibition of HGF-dependent MDCK cell proliferation” value (MDCK cells [4]) was “showed inhibitory activity, albeit less than that observed with the most potent analogs”.

`CN1[C@@H]2C[C@@H](OC(=O)[C@H](CO)c3ccccc3)C[C@H]1[C@@H]1O[C@@H]12` [scopolamine, scopolamine hydrobromide] was tested, and the “Mean latency to find the pedestal, day one” value (rats; scopolamine treated rats) was 114.7 s, the “Mean latency to find the pedestal, final day (day 8)” value (rats; scopolamine treated rats) was 84.8 s and the “Mean latency to find the pedestal, fourth day” value (rats; scopolamine treated rats) was 102.4 s.

In the case of “DYIRNC (Synthetic hinge peptide) [novel HGF antagonist; peptide representing the dimerization domain (hinge region) of HGF; KDYIRN in b79]”, the “Effect on learning in the water maze” value (rats; Hinge alone) is reported as “no effect on learning”, the “Mean latency to find the pedestal, day one” value (rats; [7]) is reported as 111.1 s and the “Mean latency to find the pedestal, final day (day 8)” value (rats; [7]) is reported as 46.1 s. For the same compound, the “Mean latency to find the pedestal, fourth day” value (rats; [7]) was 78.3 s, the “Inhibition of Dihexa-induced spinogenesis” value (hippocampal neurons [5]; Hinge 10^−12 M, Dihexa 10^−12 M) was “did effectively inhibit spine formation; also recorded: inhibits Dihexa-induced spinogenesis; also recorded: inhibits Dihexa induced spinogenesis” and the “Inhibition of HGF-induced spinogenesis” value (hippocampal neurons [5]; Hinge 10^−12 M, HGF 10 ng/ml) was “did effectively inhibit spine formation; also recorded: inhibits HGF-induced spinogenesis; also recorded: inhibits HGF induced spinogenesis”. The “Inhibition of Nle1-AngIV-induced spinogenesis” value (hippocampal neurons [5]; Hinge 10^−12 M, Nle1-AngIV 10^−12 M) was “did effectively inhibit spine formation; also recorded: inhibits Nle1-AngIV-induced spinogenesis; also recorded: inhibits Nle^1-AngIV induced spinogenesis”, the “Effect on basal spinogenesis” value (hippocampal neurons [5]; Hinge alone, wide range of doses) was “no effect on spinogenesis over a wide range of doses; also recorded: does not affect spinogenesis; also recorded: had no effect on basal spine levels” and the “Blockade of Dihexa's reversal of scopolamine cognitive dysfunction” value (scopolamine treated rats) was “blocked”. For the same compound, the mEPSC mean frequency (hippocampal neurons [6]) was 4.51±0.47.
